Test system: LNCaP cells
Assay: Gene expression in bicalutamide-treated vs untreated LNCaP cells (subtraction library, Gene Expression Micro-Array)
Format: cell-based
Settings: 25 hours

CC(O)(CS(=O)(=O)c1ccc(F)cc1)C(=O)Nc1ccc(C#N)c(C(F)(F)F)c1 (centres unmarked) [bicalutamide, Bicalutamide]
FOLD INCREASE IN mRNA: Cyclin-dependent kinase inhibitor 1 {268652} (SEQ ID NO 41, 100 nM bicalutamide): 4.5 fold
FOLD INCREASE IN mRNA: Activating transcription factor 3 (ATF3) {428248} (SEQ ID NO 42, 100 nM bicalutamide): 11.5 fold
FOLD INCREASE IN mRNA: Defender against cell death 1 {488974} (SEQ ID NO 43, 100 nM bicalutamide): 2.9 fold
FOLD INCREASE IN mRNA: CLCN3 {346749} (SEQ ID NO 46, 100 nM bicalutamide): 2.4 fold
FOLD INCREASE IN mRNA: Phosphotyrosine independent ligand p62 for the Lck SH2 domain {510278} (SEQ ID NO 47, 100 nM bicalutamide): 5.8 fold
FOLD INCREASE IN mRNA: Seryl-tRNA synthetase {510431} (SEQ ID NO 48, 100 nM bicalutamide): 4.3 fold
FOLD INCREASE IN mRNA: D53 (hD53) {510461} (SEQ ID NO 49, 100 nM bicalutamide): 3.8 fold
FOLD INCREASE IN mRNA: Unknown human protein {512334} (SEQ ID NO 50, 100 nM bicalutamide): 3.5 fold
FOLD INCREASE IN mRNA: Thioredoxin reductase {510377} (SEQ ID NO 51, 100 nM bicalutamide): 2.6 fold
FOLD INCREASE IN mRNA: ORF and HepG2 (identical sequence) {510258} (SEQ ID NO 53, 100 nM bicalutamide): 5.3 fold
FOLD INCREASE IN mRNA: 4F2 cell-surface antigen heavy chain {510504} (SEQ ID NO 54, 100 nM bicalutamide): 8.1 fold
FOLD INCREASE IN mRNA: Asparagine synthetase {510206} (SEQ ID NO 55, 100 nM bicalutamide): 2.8 fold
FOLD INCREASE IN mRNA: pM5 {509550} (SEQ ID NO 56, 100 nM bicalutamide): 2.3 fold
FOLD INCREASE IN mRNA: Archain {488510} (SEQ ID NO 57, 100 nM bicalutamide): 2.3 fold
FOLD INCREASE IN mRNA: Gravin {488106} (SEQ ID NO 58, 100 nM bicalutamide): 2.8 fold
FOLD INCREASE IN mRNA: Signal recognition particle receptor alpha subunit {358710} (SEQ ID NO 60, 100 nM bicalutamide): 2.6 fold
FOLD INCREASE IN mRNA: Phosphoenolpyruvate carboxykinase {363272} (SEQ ID NO 61, 100 nM bicalutamide): 3.4 fold
FOLD INCREASE IN mRNA: Protein translation factor SUI1 homolog {365542} (SEQ ID NO 62, 100 nM bicalutamide): 2.7 fold
FOLD INCREASE IN mRNA: NADPH-flavin reductase {365775} (SEQ ID NO 63, 100 nM bicalutamide): 3.7 fold
FOLD INCREASE IN mRNA: Peptidyl-prolyl CIS-trans isomerase B precursor {376399} (SEQ ID NO 64, 100 nM bicalutamide): 2.5 fold
FOLD INCREASE IN mRNA: Aspartate aminotransferase {417270} (SEQ ID NO 65, 100 nM bicalutamide): 3.1 fold
FOLD INCREASE IN mRNA: OS-9 precursor {417136} (SEQ ID NO 66, 100 nM bicalutamide): 2.7 fold
FOLD INCREASE IN mRNA: KIAA0025 and PIGHEP3 homologous region {418227} (SEQ ID NO 67, 100 nM bicalutamide): 5.3 fold
FOLD INCREASE IN mRNA: Glucosamine-fructose-6-phosphate aminotransferase {469633} (SEQ ID NO 68, 100 nM bicalutamide): 3.2 fold
FOLD INCREASE IN mRNA: ADP-ribosylation factor 1 {471384} (SEQ ID NO 69, 100 nM bicalutamide): 3.1 fold
FOLD INCREASE IN mRNA: Glycyl-tRNA synthetase {471164} (SEQ ID NO 70, 100 nM bicalutamide): 3.6 fold
FOLD INCREASE IN mRNA: Prion protein (PrP) {470074} (SEQ ID NO 71, 100 nM bicalutamide): 3.1 fold
FOLD INCREASE IN mRNA: Mitochondrial serine hydroxymethyltransferase {344080} (SEQ ID NO 72, 100 nM bicalutamide): 2.4 fold
FOLD INCREASE IN mRNA: Alanyl-TRNA synthetase {343998} (SEQ ID NO 73, 100 nM bicalutamide): 3.8 fold
FOLD INCREASE IN mRNA: Translocon-associated protein {324179} (SEQ ID NO 76, 100 nM bicalutamide): 2.5 fold
FOLD INCREASE IN mRNA: Translation initiation factor 5 (elF5) {299843} (SEQ ID NO 78, 100 nM bicalutamide): 2.3 fold
FOLD INCREASE IN mRNA: RESTIN {291620} (SEQ ID NO 79, 100 nM bicalutamide): 2.3 fold
FOLD INCREASE IN mRNA: Transcription elongation factor S-II {257458} (SEQ ID NO 80, 100 nM bicalutamide): 2.8 fold
FOLD INCREASE IN mRNA: Human clone 137308 {252491} (SEQ ID NO 81, 100 nM bicalutamide): 2.6 fold
FOLD INCREASE IN mRNA: Glutamate-cysteine ligase regulatory subunit {245939} (SEQ ID NO 82, 100 nM bicalutamide): 4.1 fold
FOLD INCREASE IN mRNA: Fatty aldehyde dehydrogenase {208950} (SEQ ID NO 83, 100 nM bicalutamide): 3.1 fold
FOLD INCREASE IN mRNA: MHC class I HLA-Bw58 gene {203448} (SEQ ID NO 84, 100 nM bicalutamide): 2.3 fold
FOLD INCREASE IN mRNA: Mitochondrial NDA (P)+ dependent malic enzyme {109375} (SEQ ID NO 85, 100 nM bicalutamide): 2.5 fold
FOLD INCREASE IN mRNA: GADD 153 = Growth arrest and DNA-damage inductor gene {362009} (SEQ ID NO 136, 100 nM bicalutamide): 11.1 fold
FOLD INCREASE IN mRNA: KIAA0025 gene {30476} (SEQ ID NO 137, 100 nM bicalutamide): 6.7 fold
FOLD INCREASE IN mRNA: Phosphotyrosine independent ligand p62 for the Lck SH2 domain {471392} (SEQ ID NO 138, 100 nM bicalutamide): 6.4 fold
FOLD INCREASE IN mRNA: 150 kDa oxygen-regulated protein ORP150 {486858} (SEQ ID NO 139, 100 nM bicalutamide): 5.9 fold
FOLD INCREASE IN mRNA: 78 KD Glucose regulated protein precursor {366350} (SEQ ID NO 140, 100 nM bicalutamide): 4 fold
FOLD INCREASE IN mRNA: Smad 1 {345928} (SEQ ID NO 141, 100 nM bicalutamide): 3.9 fold
FOLD INCREASE IN mRNA: EST28g11 WATM1 {486703} (SEQ ID NO 142, 100 nM bicalutamide): 3.8 fold
FOLD INCREASE IN mRNA: ESTs {322080} (SEQ ID NO 143, 100 nM bicalutamide): 3.7 fold
FOLD INCREASE IN mRNA: Seryl-tRNA sythetase {129892} (SEQ ID NO 144, 100 nM bicalutamide): 3.6 fold
